≈ marks a conversion by molar mass, not a printed value.
How the values were obtained:
Autotaxin [1] = target: T1, Autotaxin (Rattus norvegicus, UniProt Q64610); assay: Inhibition of recombinant rat ATX using LPC 18:1 as substrate after 2 hrs by rapidfire/MS-based analysis
in vitro [2] = conditions: rat, liver microsomes
Description: Clearance in rat liver microsomes at 1 uM in presence of NADPH by LC-MS/MS analysis relative to hepatic blood flow

Autotaxin [3] = target: T1, Autotaxin; assay: Inhibition of ATX in rat whole blood using LPA 17:0 as substrate after 1 hr by LC-MS/MS analysis
physchem [4] = conditions: pH 4.5 buffer solution
Description: Aqueous solubility of the compound in pH 4.5 buffer solution after 24 hrs by LC-UV analysis

physchem [5] = conditions: pH 2.2 buffer solution
Description: Aqueous solubility of the compound in pH 2.2 buffer solution after 24 hrs by LC-UV analysis

in vitro [6] = conditions: human, Caco-2
Description: Apparent permeability across apical to basolateral side in human Caco2 cells at 10 uM measured up to 90 mins

physchem [7] = conditions: pH 6.8 buffer solution
Description: Aqueous solubility of the compound in pH 6.8 buffer solution after 24 hrs by LC-UV analysis

[8] = target: Voltage-gated inwardly rectifying potassium channel KCNH2 (Homo sapiens, UniProt Q12809)
Chain of Voltage-gated inwardly rectifying potassium channel KCNH2 (Q12809 whole entry): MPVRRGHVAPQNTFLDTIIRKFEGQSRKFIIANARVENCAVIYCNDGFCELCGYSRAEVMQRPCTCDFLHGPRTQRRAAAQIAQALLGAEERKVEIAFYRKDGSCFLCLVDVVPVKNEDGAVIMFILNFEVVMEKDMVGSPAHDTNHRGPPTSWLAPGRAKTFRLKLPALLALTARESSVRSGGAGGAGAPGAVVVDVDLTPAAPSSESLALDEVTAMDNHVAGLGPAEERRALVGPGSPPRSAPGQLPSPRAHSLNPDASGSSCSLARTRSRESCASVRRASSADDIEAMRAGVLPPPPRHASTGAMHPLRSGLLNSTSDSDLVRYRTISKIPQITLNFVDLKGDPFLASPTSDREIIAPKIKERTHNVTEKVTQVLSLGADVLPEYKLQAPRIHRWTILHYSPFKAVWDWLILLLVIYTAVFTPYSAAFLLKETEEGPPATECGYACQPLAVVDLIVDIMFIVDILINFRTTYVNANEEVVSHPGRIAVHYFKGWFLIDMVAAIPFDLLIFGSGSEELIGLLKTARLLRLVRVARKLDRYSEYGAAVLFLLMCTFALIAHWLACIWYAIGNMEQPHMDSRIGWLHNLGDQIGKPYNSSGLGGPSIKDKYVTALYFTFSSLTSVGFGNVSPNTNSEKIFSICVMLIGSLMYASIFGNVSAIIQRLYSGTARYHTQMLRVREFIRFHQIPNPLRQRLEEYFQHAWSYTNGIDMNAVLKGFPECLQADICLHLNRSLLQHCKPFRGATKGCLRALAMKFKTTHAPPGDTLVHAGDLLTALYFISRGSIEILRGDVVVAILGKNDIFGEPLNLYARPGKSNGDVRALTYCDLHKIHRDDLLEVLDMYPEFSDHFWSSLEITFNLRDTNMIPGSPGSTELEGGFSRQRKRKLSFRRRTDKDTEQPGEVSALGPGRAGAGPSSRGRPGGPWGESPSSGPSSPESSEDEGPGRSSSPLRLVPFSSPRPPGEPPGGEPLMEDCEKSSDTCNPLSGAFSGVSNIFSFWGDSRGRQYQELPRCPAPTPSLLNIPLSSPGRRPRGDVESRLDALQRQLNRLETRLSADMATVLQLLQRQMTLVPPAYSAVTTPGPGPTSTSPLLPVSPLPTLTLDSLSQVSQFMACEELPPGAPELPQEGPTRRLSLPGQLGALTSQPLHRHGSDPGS
Description: Inhibition of human ERG expressed in HEK293 cells by patch clamp assay

in vitro [9] = conditions: human, liver microsomes
Description: Clearance in human liver microsomes at 1 uM in presence of NADPH by LC-MS/MS analysis relative to hepatic blood flow

Rattus norvegicus [10] = assay: In vivo inhibition of ATX in Han Wistar rat assessed as decrease in plasma LPA species level measured up to 24 hrs by LC-MS/MS analysis; type: functional, organism-based
[11] = target: 5-hydroxytryptamine receptor 2A (Homo sapiens) (UniProt P28223); assay: Inhibition of recombinant human 5-HT2A receptor at 10 uM after 60 mins by scintillation counting analysis relative to control
Chain of 5-hydroxytryptamine receptor 2A (Homo sapiens) (P28223 whole entry): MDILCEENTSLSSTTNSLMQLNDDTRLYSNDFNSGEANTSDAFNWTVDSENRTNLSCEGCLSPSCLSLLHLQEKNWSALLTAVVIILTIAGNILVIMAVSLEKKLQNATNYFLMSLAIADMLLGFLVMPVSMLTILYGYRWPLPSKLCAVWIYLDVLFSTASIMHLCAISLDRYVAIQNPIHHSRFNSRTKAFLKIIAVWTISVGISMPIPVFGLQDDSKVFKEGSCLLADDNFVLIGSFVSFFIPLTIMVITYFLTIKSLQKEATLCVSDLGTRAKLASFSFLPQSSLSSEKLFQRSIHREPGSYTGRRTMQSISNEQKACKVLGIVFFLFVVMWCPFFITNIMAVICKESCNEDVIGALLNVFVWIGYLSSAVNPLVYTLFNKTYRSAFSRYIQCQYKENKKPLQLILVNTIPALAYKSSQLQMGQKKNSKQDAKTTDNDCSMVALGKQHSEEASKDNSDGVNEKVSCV

Rattus norvegicus [12] = assay: In vivo inhibition of ATX in Han Wistar rat assessed as decrease in plasma LPA 18:1 species level measured up to 24 hrs by LC-MS/MS analysis relative to control; type: functional
[13] = Half life in Han Wistar rat at 1 mg/kg, iv; type: ADME, organism-based; conditions: in vivo
Rattus norvegicus [14] = assay: In vivo inhibition of ATX in Han Wistar rat assessed as decrease in plasma LPA 18:0 species level measured up to 24 hrs by LC-MS/MS analysis relative to control; type: functional
Rattus norvegicus [15] = assay: Dose normalized AUC in Han Wistar rat at 1 mg/kg, iv; type: ADME, organism-based; conditions: in vivo
Rattus norvegicus [16] = assay: Clearance in Han Wistar rat at 1 mg/kg, iv relative to hepatic blood flow; type: ADME, organism-based; conditions: in vivo
Rattus norvegicus [17] = assay: In vivo inhibition of ATX in Han Wistar rat assessed as decrease in plasma LPA 18:2 species level measured up to 24 hrs by LC-MS/MS analysis relative to control; type: functional
Rattus norvegicus [18] = assay: Dose normalized AUC in Han Wistar rat at 10 mg/kg, po; type: ADME, organism-based; conditions: in vivo
Homo sapiens = species on record: Homo sapiens; assay: Inhibition of sodium channel site 2 (unknown origin) at 10 uM relative to control
[19] = target: Sodium-dependent noradrenaline transporter (Homo sapiens) (UniProt P23975); assay: Inhibition of norepinephrine transporter (unknown origin) at 10 uM relative to control
Chain of Sodium-dependent noradrenaline transporter (Homo sapiens) (P23975 whole entry): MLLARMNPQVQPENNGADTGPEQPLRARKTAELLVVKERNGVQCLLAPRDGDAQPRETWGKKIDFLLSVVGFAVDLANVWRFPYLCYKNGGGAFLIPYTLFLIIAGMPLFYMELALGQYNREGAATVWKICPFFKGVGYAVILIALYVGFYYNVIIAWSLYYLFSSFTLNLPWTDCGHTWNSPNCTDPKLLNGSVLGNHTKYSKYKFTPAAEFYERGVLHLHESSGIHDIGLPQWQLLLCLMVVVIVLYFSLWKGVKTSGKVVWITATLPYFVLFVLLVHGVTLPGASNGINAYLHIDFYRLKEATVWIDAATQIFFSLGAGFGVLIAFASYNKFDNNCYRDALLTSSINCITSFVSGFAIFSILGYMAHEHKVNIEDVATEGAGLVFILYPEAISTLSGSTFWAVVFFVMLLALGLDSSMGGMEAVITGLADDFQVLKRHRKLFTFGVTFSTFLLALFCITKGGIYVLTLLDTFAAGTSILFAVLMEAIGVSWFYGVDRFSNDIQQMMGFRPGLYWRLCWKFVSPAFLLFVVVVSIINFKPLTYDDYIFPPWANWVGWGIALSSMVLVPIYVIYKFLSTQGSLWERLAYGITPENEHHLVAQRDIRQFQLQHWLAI

Rattus norvegicus [20] = assay: Dose normalized Cmax in Han Wistar rat at 10 mg/kg, po; type: ADME, organism-based; conditions: in vivo
[21] = Protein binding in rat plasma; type: ADME, cell-free; conditions: read-out: PPB
Rattus norvegicus [22] = assay: In vivo inhibition of ATX in Han Wistar rat assessed as decrease in plasma LPA 20:4 species level measured up to 24 hrs by LC-MS/MS analysis relative to control; type: functional
Rattus norvegicus [23] = assay: In vivo inhibition of ATX in Han Wistar rat assessed as decrease in plasma LPA 16:0 species level measured up to 24 hrs by LC-MS/MS analysis relative to control; type: functional
[24] = Oral bioavailability in Han Wistar rat at 10 mg/kg; type: ADME, organism-based; conditions: in vivo
[25] = Tmax in Han Wistar rat at 10 mg/kg, po; type: ADME, organism-based; conditions: in vivo
[26] = Volume of distribution at steady state in Han Wistar rat at 1 mg/kg, iv; type: ADME, organism-based; conditions: in vivo, read-out: Vdss
L-type calcium channel = L-type calcium channel (Homo sapiens, UniProt O60840+Q01668+Q13698+Q13936); assay: Inhibition of L-type calcium channel (unknown origin) at 10 uM relative to control; type: protein assay
[27] = Half life in Han Wistar rat at 10 mg/kg, po; type: ADME, organism-based; conditions: in vivo
[28] = Protein binding in human plasma; type: ADME, cell-free; conditions: read-out: PPB

In the case of `O=C(NC[C@@H]1[C@H]2CN(C(=O)NCc3cc(Cl)cc(Cl)c3)C[C@@H]12)c1ccc2[nH]c(=O)oc2c1`, the IC50 (Autotaxin [1]) is reported as 13.9 nM, the hepatic extraction ratio at 1 µM (in vitro [2]) is reported as 0.35 and the IC50 (Autotaxin [3]) is reported as 77 nM. The solubility at 24 h (physchem [4]) was < 1 µg/mL, the solubility at 24 h (physchem [5]) was < 1 µg/mL and the Papp A→B at 1.5 h, 10 µM (in vitro [6]) was 2 ×10⁻⁶ cm/s. The solubility at 24 h (physchem [7]) was < 1 µg/mL, the IC50 [8] was > 10000 nM and the hepatic extraction ratio at 1 µM (in vitro [9]) was 0.36.
For `O=C(NC[C@@H]1[C@H]2CN(C(=O)/C=C/c3cc(Cl)cc(Cl)c3)C[C@@H]12)c1ccc2[nH]c(=O)oc2c1`, the IC50 (Autotaxin [1]) was 1.7 nM, the hepatic extraction ratio at 1 µM (in vitro [2]) was > 0.22 and the IC50 (Autotaxin [3]) was 1900 nM. For the same molecule, the solubility at 24 h (physchem [4]) was < 1 µg/mL, the solubility at 24 h (physchem [5]) was < 1 µg/mL and the Papp A→B at 1.5 h, 10 µM (in vitro [6]) was 38 ×10⁻⁶ cm/s. The solubility at 24 h (physchem [7]) was < 1 µg/mL, the IC50 [8] was 4200 nM and the hepatic extraction ratio at 1 µM (in vitro [9]) was 0.25.
For `O=C(NC[C@@H]1[C@H]2CN(C(=O)OCc3cc(C(F)(F)F)cc(C(F)(F)F)c3)C[C@@H]12)c1ccc2[nH]nnc2c1` [BI 2545], the IC50 (Rattus norvegicus [10]) was 100 nM, the inhibition [11] was 55% and the “inhibition (INH)” value (Rattus norvegicus [12]) was “<=90%”. The IC50 (Autotaxin [1]) was 3.4 nM, the half-life [13] was 1.8 h and the “inhibition (INH)” value (Rattus norvegicus [14]) was “<=90%”. The AUC/dose (Rattus norvegicus [15]) was 2320 nM·h, the IC50 (Autotaxin [3]) was 96 nM and the CL (Rattus norvegicus [16]) was 10%. The “inhibition (INH)” value (Rattus norvegicus [17]) was “<=90%”, the AUC/dose (Rattus norvegicus [18]) was 675 nM·h and the inhibition (Homo sapiens) was 66%. For the same molecule, the solubility at 24 h (physchem [4]) was < 1 µg/mL, the inhibition [19] was 61% and the solubility at 24 h (physchem [5]) was < 1 µg/mL. For the same molecule, the Cmax/dose (Rattus norvegicus [20]) was 149 nM, the fraction unbound [21] was < 0.002 and the “inhibition (INH)” value (Rattus norvegicus [22]) was “<=90%”. For the same molecule, the “inhibition (INH)” value (Rattus norvegicus [23]) was “<=90%”, the Papp A→B at 1.5 h, 10 µM (in vitro [6]) was 9 ×10⁻⁶ cm/s and the solubility at 24 h (physchem [7]) was < 1 µg/mL. The bioavailability [24] was 30%, the Tmax [25] was 1.7 h and the Vd [26] was 0.9 L/kg. For the same molecule, the inhibition at 10 µM (L-type calcium channel) was 80%, the IC50 [8] was > 10000 nM and the half-life [27] was 3.4 h. For the same molecule, the fraction unbound [28] was < 0.002.
In the case of `Cc1ccc(COC(=O)N2C[C@@H]3[C@@H](CNC(=O)c4ccc5[nH]c(=O)oc5c4)[C@@H]3C2)nc1`, the IC50 (Autotaxin [1]) is reported as 1530 nM, the hepatic extraction ratio at 1 µM (in vitro [2]) is reported as < 0.22 and the IC50 (Autotaxin [3]) is reported as 1610 nM. The solubility at 24 h (physchem [4]) was 66 µg/mL (≈ 156 µM), the solubility at 24 h (physchem [5]) was > 92 µg/mL and the Papp A→B at 1.5 h, 10 µM (in vitro [6]) was 1 ×10⁻⁶ cm/s. For the same molecule, the solubility at 24 h (physchem [7]) was 56 µg/mL (≈ 133 µM), the IC50 [8] was > 10000 nM and the hepatic extraction ratio at 1 µM (in vitro [9]) was 0.25.
For `Cc1cc(COC(=O)N2C[C@@H]3[C@@H](CNC(=O)c4ccc5[nH]c(=O)oc5c4)[C@@H]3C2)no1`, the IC50 (Autotaxin [1]) was 1670 nM, the hepatic extraction ratio at 1 µM (in vitro [2]) was < 0.22 and the solubility at 24 h (physchem [4]) was > 93 µg/mL. The solubility at 24 h (physchem [5]) was > 86 µg/mL, the Papp A→B at 1.5 h, 10 µM (in vitro [6]) was 2 ×10⁻⁶ cm/s and the solubility at 24 h (physchem [7]) was 63 µg/mL (≈ 153 µM). The IC50 [8] was > 10000 nM and the hepatic extraction ratio at 1 µM (in vitro [9]) was < 0.23.
In the case of `CC(OC(=O)N1C[C@@H]2[C@@H](CNC(=O)c3ccc4[nH]c(=O)oc4c3)[C@@H]2C1)c1cc(Cl)cc(Cl)c1` (stereo partly drawn), the IC50 (Autotaxin [1]) is reported as 66.9 nM, the IC50 (Autotaxin [3]) is reported as 208 nM and the solubility at 24 h (physchem [4]) is reported as < 1 µg/mL. The solubility at 24 h (physchem [5]) was < 1 µg/mL, the Papp A→B at 1.5 h, 10 µM (in vitro [6]) was 118 ×10⁻⁶ cm/s and the solubility at 24 h (physchem [7]) was < 1 µg/mL.
With `O=C(NC[C@@H]1[C@H]2CN(C(=O)C3CC3c3cc(Cl)cc(Cl)c3)C[C@@H]12)c1ccc2[nH]c(=O)oc2c1` (stereo partly drawn) the IC50 (Autotaxin [1]) was 4.8 nM, the hepatic extraction ratio at 1 µM (in vitro [2]) was > 0.22 and the IC50 (Autotaxin [3]) was 2400 nM. For the same molecule, the solubility at 24 h (physchem [4]) was < 1 µg/mL, the solubility at 24 h (physchem [5]) was < 1 µg/mL and the Papp A→B at 1.5 h, 10 µM (in vitro [6]) was 64 ×10⁻⁶ cm/s. For the same molecule, the solubility at 24 h (physchem [7]) was < 1 µg/mL and the IC50 [8] was 4700 nM.
Molecule `N#Cc1cc(COC(=O)N2C[C@@H]3[C@@H](CNC(=O)N4CCc5[nH]nnc5C4)[C@@H]3C2)cc(C(=O)OC(F)(F)F)c1` has an IC50 (Autotaxin [1]) of 1.3 nM, a hepatic extraction ratio at 1 µM (in vitro [2]) of 0.43 and an IC50 (Autotaxin [3]) of 33 nM. For the same molecule, the solubility at 24 h (physchem [4]) was 26 µg/mL (≈ 48.7 µM), the solubility at 24 h (physchem [5]) was 32 µg/mL (≈ 60 µM) and the Papp A→B at 1.5 h, 10 µM (in vitro [6]) was 7 ×10⁻⁶ cm/s. The solubility at 24 h (physchem [7]) was 5 µg/mL (≈ 9.37 µM), the IC50 [8] was > 10000 nM and the hepatic extraction ratio at 1 µM (in vitro [9]) was 0.44.
For `O=C(CCN1CCN(C(=O)OCc2cc(Cl)cc(Cl)c2)CC1)c1ccc2[nH]c(=O)oc2c1`, the IC50 (Autotaxin [3]) was 307 nM and the IC50 [8] was 480 nM.

From ChEMBL document CHEMBL4138254 (ACS Med Chem Lett, 2017)
